The target of the test is hMAT2A (Homo sapiens (Human), UniProt P31153). Nature of the test: Malachite Green Assay (MAT2A enzyme inhibition). It is filed as biochemical. Particulars: hMAT2A 50 nM, substrates 500 uM each. The procedure:
The ability of the compound of present disclosure to inhibit MAT2A enzyme was determined using the Malachite Green or Phosphate Sensor Fluorescence Assay described below.
L-methionine Substrate: Alfa Aesar catalog #J61904
ATP Substrate: Alfa Aesar cat #J60336
Malachite Green Detection Reagent: Millipore Sigma catalog #MAK307-1KT
Assay buffer: 50 mM Tris, pH 7.5/50 mM KCl/10 mM MgCl2/0.01% Brij-35/1 mM DTT/0.1% BGG
The plate was centrifuged at 1000 rpm for 1 minute and then incubated at room temperature for 1 hour. 5 μL of malachite green detection reagent was added to all the test wells and the plate was centrifuged at 1000 rpm for 1 minute and then incubated at room temperature for 30 minutes. The plate was read for absorbance at 620 nm on a plate reader (e.g., Infinite M1000).

hMAT2A, sequence (P31153 whole entry): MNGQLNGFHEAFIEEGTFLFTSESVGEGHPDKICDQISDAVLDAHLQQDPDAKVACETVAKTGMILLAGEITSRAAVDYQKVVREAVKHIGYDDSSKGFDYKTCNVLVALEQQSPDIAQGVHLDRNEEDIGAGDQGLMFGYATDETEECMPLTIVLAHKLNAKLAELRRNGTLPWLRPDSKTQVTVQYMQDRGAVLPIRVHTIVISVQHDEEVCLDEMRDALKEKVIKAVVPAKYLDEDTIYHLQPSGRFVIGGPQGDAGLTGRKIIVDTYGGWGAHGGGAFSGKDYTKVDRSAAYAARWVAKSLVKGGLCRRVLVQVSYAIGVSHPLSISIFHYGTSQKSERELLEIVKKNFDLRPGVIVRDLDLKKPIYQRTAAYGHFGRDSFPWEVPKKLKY

In the case of “7-chloro-4-(dimethylamino)-1-(3-(2-phenoxyethyl)phenyl)quinazolin-2(1H)-one [Example 10]”, the IC50 – broadly, the concentration that inhibits the measured activity by half – is 200 to 500 nM.
